In ChEMBL document CHEMBL5620346, “Current scenario of pyrazole hybrids with in vivo therapeutic potential against cancers” (Eur J Med Chem, 2023):

Tests used:
T47D = assay: Antiproliferative activity against human T47D cells assessed as reduction in cell viability incubated for 72 hrs by MTT assay; assay type: functional, cell-based
BT-549 [1] = assay: Antiproliferative activity against human BT-549 cells assessed as inhibition of cell proliferation incubated for 72 hrs by MTT assay; assay type: functional, cell-based; settings: BT-549, 72 h
MCF7 [2] = assay: Antiproliferative activity against human MCF7 cells assessed as reduction in cell viability incubated for 72 hrs by MTT assay; assay type: functional, cell-based; settings: MCF7, 72 h
MDA-MB-453 = assay: Antiproliferative activity against human MDA-MB-453 cells assessed as reduction in cell viability incubated for 72 hrs by MTT assay; assay type: functional, cell-based; settings: MDA-MB-453, 72 h
MDA-MB-231 = assay: Antiproliferative activity against human MDA-MB-231 cells assessed as reduction in cell viability incubated for 72 hrs by MTT assay; assay type: functional, cell-based; settings: MDA-MB-231, 72 h
BT-549 [3] = assay: Antitumor activity against human BT-549 cells xenografted in BALB/c nude mouse assessed as tumor growth inhibition at 30 mg/kg, sc administered for 20 days relative to control; assay type: functional; settings: BT-549, 480 h, time 20 day, read-out: TGI
[4] = Cytotoxicity against human HuT 102 cells assessed as reduction in cell growth incubated for 72 hrs by MTT assay; assay type: functional, cell-based; settings: HuT-102, 72 h
[5] = Cytotoxicity against human OATL4 cells assessed as cell growth inhibition incubated for 72 hrs by MTT assay; assay type: functional, cell-based; settings: OATL4, 72 h
[6] = Cytotoxicity against human KOB cells assessed as cell growth inhibition incubated for 72 hrs by MTT assay; assay type: functional, cell-based
[7] = target: Heat shock protein HSP 90-alpha (Homo sapiens, UniProt P07900); assay: Inhibition of human recombinant HSP90alpha expressed in Escherichia coli BL21 (DE3) incubated for 12 hrs by
[8] = target: Heat shock protein HSP 90-beta (Homo sapiens, UniProt P08238); assay: Inhibition of human recombinant HSP90beta expressed in Escherichia coli BL21 (DE3) incubated for 12 hrs
[9] = Antitumor activity against human HuT 102 cells xenografted in mouse assessed as reduction in tumor growth at 14 mg/kg, po relative to control; assay type: functional; settings: read-out: TGI
[10] = target: Receptor-type tyrosine-protein kinase FLT3 (Homo sapiens, UniProt P36888, D835H); assay: Inhibition of FLT3 D835H mutant (unknown origin)
[11] = target: Cyclin-dependent kinase 4 (Homo sapiens, UniProt P11802); assay: Inhibition of CDK4 (unknown origin)
MV4-11 = assay: Antitumor activity against human MV4-11 cells xenografted in mouse assessed as tumor growth inhibition at 200 mg/kg, po relative to control; assay type: functional; settings: read-out: TGI
KCL-22 = assay: Antitumor activity against human KCL-22 cells xenografted in mouse assessed as reduction in tumor growth at 3 mg/kg, po relative to control; settings: KCL-22, po, read-out: TGI
[12] = Tmax in mouse at 40 mg/kg, po; assay type: ADME, organism-based; settings: in vivo
[13] = Half life in mouse at 40 mg/kg, po; assay type: ADME, organism-based; settings: in vivo
MCF7 [14] = assay: Cytotoxicity against human MCF7 cells assessed as reduction in cell viability incubated for 48 hrs by MTT assay; assay type: functional, cell-based; settings: MCF7, 48 h
K562 = assay: Cytotoxicity against human K562 cells assessed as reduction in cell viability incubated for 48 hrs by MTT assay; assay type: functional, cell-based; settings: K562, 48 h
HT-29 [15] = assay: Cytotoxicity against human HT-29 cells assessed as reduction in cell viability incubated for 48 hrs by MTT assay; assay type: functional, cell-based; settings: HT-29, 48 h
HT-29 [16] = assay: Antitumor activity against human HT-29 cells xenografted in BALB/c mouse assessed as reduction in tumor growth at 25 mg/kg, ip relative to control; assay type: functional; set-up: scale not given: the % may be the effect or the level left
MCF7 [17] = assay: Cytotoxicity against human MCF7 cells assessed as reduction in cell viability measured after 72 hrs by SRB assay; assay type: functional, cell-based; settings: MCF7, 72 h
MCF-10A = assay: Cytotoxicity against human MCF-10A cells assessed as reduction in cell viability measured after 72 hrs by SRB assay; assay type: functional, cell-based
OE19 [18] = assay: Antitumor activity against human OE19 cells xenografted in NOD/SCID mouse model assessed as tumor growth inhibition at 25 mg/kg, ip administered for 14 days relative to control; assay type: functional; settings: OE19, 336 h, time 14 day, read-out: TGI
OE19 [19] = assay: Antitumor activity against human OE19 cells xenografted in NOD/SCID mouse model assessed as tumor growth inhibition at 25 mg/kg, ip administered for 14 days in presence of flavopiridol relative to control; assay type: functional; set-up: scale not given: the % may be the effect or the level left; settings: time 14 day
OE19 [20] = assay: Antitumor activity against human OE19 cells xenografted in NOD/SCID mouse model assessed as tumor growth inhibition at 25 mg/kg, ip administered for 46 days relative to control; assay type: functional; set-up: scale not given: the % may be the effect or the level left; settings: time 46 day
NCI-H460 = assay: Antitumor activity against human NCI-H460 cells xenografted in nude mouse assessed as tumor growth inhibition at 6.25 mg/kg, po administered twice daily for 14 days in presence of 2-deoxyglucose relative to control; assay type: functional; set-up: scale not given: the % may be the effect or the level left; settings: time 14 day
HT-29 [21] = assay: Antiproliferative activity against human HT-29 cells assessed as cell growth inhibition incubated for 72 hrs by MTT assay; assay type: functional, cell-based; settings: HT-29, 72 h
MCF7 [22] = assay: Antiproliferative activity against human MCF7 cells assessed as cell growth inhibition incubated for 72 hrs by MTT assay; assay type: functional, cell-based; settings: MCF7, 72 h
HT-29 [23] = assay: Antitumor activity against human HT-29 cells xenografted in nude mouse assessed as reduction in tumor growth at 50 mg/kg, po administered for 21 days relative to control; assay type: functional; settings: HT-29, 504 h, time 21 day, read-out: TGI
HT-29 [24] = assay: Antitumor activity against human HT-29 cells xenografted in nude mouse assessed as reduction in tumor growth at 50 mg/kg, ip administered for 21 days relative to control; assay type: functional; settings: HT-29, 504 h, time 21 day, read-out: TGI
HepG2 = assay: Cytotoxicity against human HepG2 cells assessed as reduction in cell viability incubated for 72 hrs by MTT assay; assay type: functional, cell-based; settings: HepG2, 72 h
MCF7 [25] = assay: Cytotoxicity against human MCF7 cells assessed as reduction in cell viability incubated for 72 hrs by MTT assay; assay type: functional, cell-based; settings: MCF7, 72 h
HeLa = assay: Cytotoxicity against human HeLa cells assessed as reduction in cell viability incubated for 72 hrs by MTT assay; assay type: functional, cell-based

Heat shock protein HSP 90-beta, sequence (P08238 whole entry): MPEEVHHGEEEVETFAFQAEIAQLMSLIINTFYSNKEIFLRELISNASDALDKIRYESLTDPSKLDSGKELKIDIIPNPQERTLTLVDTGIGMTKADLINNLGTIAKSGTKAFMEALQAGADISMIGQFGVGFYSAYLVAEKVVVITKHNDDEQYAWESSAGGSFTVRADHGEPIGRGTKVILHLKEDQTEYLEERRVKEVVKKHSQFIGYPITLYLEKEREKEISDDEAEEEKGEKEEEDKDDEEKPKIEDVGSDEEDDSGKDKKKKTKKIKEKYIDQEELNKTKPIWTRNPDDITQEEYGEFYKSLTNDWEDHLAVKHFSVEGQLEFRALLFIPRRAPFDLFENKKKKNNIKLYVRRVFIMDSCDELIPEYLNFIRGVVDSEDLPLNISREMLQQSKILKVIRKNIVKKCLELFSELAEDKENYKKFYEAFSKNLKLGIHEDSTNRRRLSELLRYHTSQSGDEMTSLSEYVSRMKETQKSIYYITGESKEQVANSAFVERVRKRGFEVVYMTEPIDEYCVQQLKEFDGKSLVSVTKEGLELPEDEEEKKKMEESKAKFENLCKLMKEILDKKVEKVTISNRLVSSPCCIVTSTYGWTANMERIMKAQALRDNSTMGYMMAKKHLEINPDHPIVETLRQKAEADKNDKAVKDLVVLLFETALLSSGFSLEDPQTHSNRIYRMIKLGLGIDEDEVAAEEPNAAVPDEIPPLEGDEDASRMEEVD
Cyclin-dependent kinase 4, sequence (P11802 whole entry): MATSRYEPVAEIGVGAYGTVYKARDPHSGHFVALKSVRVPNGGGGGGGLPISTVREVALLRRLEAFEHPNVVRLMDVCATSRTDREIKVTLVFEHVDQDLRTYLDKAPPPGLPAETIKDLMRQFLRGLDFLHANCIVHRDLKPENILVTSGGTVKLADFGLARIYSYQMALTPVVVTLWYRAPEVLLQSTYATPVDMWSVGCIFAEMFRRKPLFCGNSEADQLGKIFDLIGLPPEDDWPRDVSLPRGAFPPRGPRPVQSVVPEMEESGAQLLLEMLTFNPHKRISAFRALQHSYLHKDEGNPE

CN(C)S(=O)(=O)Nc1cccc(-c2cnn(-c3ccc(C(F)(F)F)cc3)c2)c1 showed an IC50 (T47D) of 3.44 µM, an IC50 (BT-549 [1]) of 3.44 µM and an IC50 (MCF7 [2]) of 3.44 µM. For the same compound, the IC50 (MDA-MB-453) was 3.44 µM, the IC50 (MDA-MB-231) was 3.44 µM and the inhibition in vivo at 30 mg/kg (BT-549 [3]) was ~50%.
For CCc1cc(C(N)=O)ccc1-n1nc(C(C)C)c2c(-n3cnc(-c4cnn(C)c4)c3)ccnc21 [TAS-116], the IC50 [4] was 0.376 µM, the IC50 [5] was 0.376 µM and the IC50 [6] was 0.376 µM. It also gave an IC50 [7] of 0.0347 µM, an IC50 [8] of 0.0213 µM and an inhibition in vivo at 14 mg/kg [9] of 70%.
CCN1CCN(c2ccc(Nc3ncc(F)c(-c4cnc5cnn(C(C)C)c5c4)n3)cc2OC)CC1 showed an IC50 [10] of 0.011 µM, an IC50 [11] of 0.007 µM and an inhibition in vivo at 200 mg/kg (MV4-11) of 67%.
O=C(Nc1ccc(OC(F)(F)Cl)cc1)c1cnc(N2CC[C@@H](O)C2)c(-c2ccn[nH]2)c1 [ASCIMINIB] showed an inhibition in vivo at 3 mg/kg (KCL-22) of 65%, a Tmax [12] of 2.5 h and a half-life [13] of 5.5 h.
O=C1NC(=O)/C(=C/c2ccc3cc(OCC(=O)N4N=C(c5ccc(F)cc5)CC4c4ccccc4Cl)ccc3c2)S1 (stereo not drawn) gave an IC50 (MCF7 [14]) of 8.2 µM, an IC50 (K562) of 8.2 µM and an IC50 (HT-29 [15]) of 8.2 µM. It also gave an Activity (HT-29 [16]) of 30%.
For COc1ccc(C2CC(c3ccc(OC)c(OC)c3)=NN2c2nc(-c3ccccc3)cs2)cc1 (stereo not drawn), the IC50 (MCF7 [17]) was 7.21 µM and the IC50 (MCF-10A) was > 50 µM.
Compound C[C@@]1(C(=O)Nc2ccc(F)nc2)CCCN1c1nc(Nc2cc(C3CC3)n[nH]2)c2cccn2n1 [BMS-754807] has an inhibition in vivo at 25 mg/kg (OE19 [18]) of 52%, an Activity (OE19 [19]) of 92.2% and an Activity (OE19 [20]) of 61.8%. For the same compound, the Activity (NCI-H460) was 69%.
O=C1CN(CC(=O)N2N=C(c3ccccc3)CC2c2ccccc2)C(=O)N1 (stereo not drawn) showed an IC50 (HT-29 [21]) of 0.01 µM, an IC50 (MCF7 [22]) of 0.69 µM and an inhibition in vivo at 50 mg/kg (HT-29 [23]) of 34%. For the same compound, the inhibition in vivo at 50 mg/kg (HT-29 [24]) was 31%.
Work on Cc1n[nH]c2c1C(c1ccc(N(C)C)cc1)C(C(N)=O)=C(N)N2 (stereo not drawn) yielded an IC50 (HepG2) of 4.55 µM, an IC50 (MCF7 [25]) of 4.24 µM and an IC50 (HeLa) of 4.18 µM.
With CCOC(=O)C1=C(N)Nc2[nH]nc(C)c2C1c1ccc(N(C)C)cc1 (stereo not drawn) the IC50 (HepG2) was 4.55 µM, the IC50 (MCF7 [25]) was 4.24 µM and the IC50 (HeLa) was 4.18 µM.
